Data published in patent publication US20260055061A1, “HALOPHTHALIMIDE COMPOUNDS AND METHODS OF USE AGAINST TBI, INFLAMMATORY DISORDER, AUTOIMMUNE DISORDER, NEURODEGENERATIVE DISEASE OR VIRAL INFECTION” (The United States of America, as represented by the …, priority 2022, published 2026).
“Also recorded” adds a separate entry of the source.

Legend:
CCI-induced TBI mice = test: CCI mouse model of TBI: DigiGait gait analysis; format: in vivo; conditions: high dose 32.5 mg/kg; 1 week after CCI
Description: In vivo model of TBI: Mice were anesthetized with 2.5% tribromoethanol (Avertin: 250 mg/kg; Sigma, St. Louis, MO, USA) and placed in a stereotaxic frame (Kopf Instruments, Tujunga, CA, USA). A 4 mm craniotomy was performed using sterile procedures; the craniotomy point was selected midway between the lambda and bregma sutures and laterally midway between the central suture and the temporalis muscle. The skull fragment was then carefully removed without disruption of the underlying dura. Prior to injury induction, the tip of the impactor was angled and kept perpendicular to the exposed cortical surface. The mouse CCI instrument consisted of an electromagnetic impactor, Impact One (Leica Biosystems Inc., Buffalo Grove, IL, USA) that allows independent alteration of injury severity by controlling contact velocity and the level of cortical deformation. In these experiments, the contact velocity was set at 5.0 m/sec, the dwell time was set at 0.2 s and the deformation depth was set at 2 mm to produce a moderate TBI. The injury site was allowed to dry prior to suturing the wound. During surgery and recovery, the body temperature of the animals was maintained at 36-37° C. by using a heating pad. […] Mice were randomized following CCI to treatment with either of two doses of TFBP (16.25 mg/kg and 32.5 mg/kg, i.p.) or saline, and were dosed at 1 and 24 hr after the injury.
Behavioral assessment for motor functions and coordination: Behavioral tests were performed 1 week and 2 weeks after injury, to assess changes in motor functions and coordination. All tests were performed during the animals' light phase; cages were transported to testing rooms at least 30 min prior to testing.
Gait analysis: For the gait analysis, mice were tested on a fixed-speed treadmill apparatus (DigiGait; Mouse Specifics). Mice were habituated to the apparatus for 1 min, and then given a 1-min run at 5 cm/s. Following a 1-min rest, the treadmill speed was increased to 15 cm/s. Video was collected at high speed from a ventrally placed camera, and 3-5 s of representative gait video was selected by an experienced but blinded user for automated analysis.
In Vivo Model of TBI: TBI studies were conducted in 8-week-old male C57/BL6 mice (25-30 g; n=20), Jackson Laboratory, Bar Harbor, Maine USA. Mice were randomly assigned to four groups prior surgery, CMC+Sham, CMC+TBI, compound 30 (Low dose (LD), 14.78 mg/kg, prepared in 1% CMC in PBS)+TBI, compound 30 (High dose (HD), 29.57 mg/kg)+TBI, and evaluated the effects of compound 30 on TBI. Mice were assessed for gait function and motor coordination, balance function. Animals were subsequently evaluated for cellular changes using histological and immunohistochemistry staining. […]

chicken embryos = test: Chick embryo teratogenicity; format: in vivo
Description: Chick embryology and analysis: Chicken eggs were obtained from Henry Stewart & Co Ltd, Norfolk UK. All work with chicken embryos obeyed UK Home Office regulations and followed guidelines, standards and practices governed by the University of Aberdeen Ethics Committee (Scotland, UK). […] Embryos were incubated at 37° C. for the required time period to reach E2.5 and E4 (early and mid-developmental stages, respectively). Eggs were then opened and the embryonic membranes protecting the embryos were removed with forceps. Chicken embryos typically lie on one side, so the left side is directly against the yolk and the right side can be observed. Drug (TFBP) or Control (DMSO alone) solutions were applied in 100 μL aliquots over the middle of the embryo on its right side. Embryos were left at room temperature for 20 min before being replaced in a 37° C. incubator. Due to the limited diffusion of drugs when applied to the right side of an embryo, the right side is considered the ‘treatment’ side and the left (facing internally towards the yolk sack) is considered normal after treatment and can, thereby, act as an internal control.

[1] = Phase I metabolic stability in human liver microsomes (+/- NADPH, LC/MS); format: in vitro ADME
Description: The fluorinated compounds were evaluated under the more metabolically demanding conditions of a Phase-1-type microsomal analysis. […] For this initial comparison, the 7-fluoro-dithiopomaldiomide 30 was selected owing to its combination of favorable biological parameters and general ease of synthesis. The reactions on each sample were initiated by addition of human liver microsomes in the presence or absence of an NADPH regenerating system, and compound disappearance was monitored via LC/MS (FIG. 14, Table 10).

[2] = 3.5 μM, chicken embryos age E4, N = 7
[3] = 7.0 μM, chicken embryos age E2.5, N = 6
[4] = 7.0 μM, chicken embryos age E4, N = 7
[5] = 14.0 μM, chicken embryos age E2.5, N = 6

Row | Compound | gait brake time (CCI-induced TBI mice) | Abnormal embryos (chicken embryos; [2]) | Dead embryos (chicken embryos; [2]) | Normal embryos (chicken embryos; [2]) | Abnormal embryos (chicken embryos; [3]) | Dead embryos (chicken embryos; [3]) | Normal embryos (chicken embryos; [3]) | Abnormal embryos (chicken embryos; [4]) | Dead embryos (chicken embryos; [4]) | Normal embryos (chicken embryos; [4]) | Dead embryos (chicken embryos; [5]) | Normal embryos (chicken embryos; [5]) | developmental anomaly in chicken embryos (chicken embryos; 14.0 μM, a single embryo, eye on control side) | deaths of chicken embryos (chicken embryos; 14.0 μM, around 48-72 h after application) | effects on embryo development (chicken embryos; 3.5 and 7.0 μM) | tolerability in chicken embryos (chicken embryos; lower dose 3.5 μM, E2.5 and E4) | death rate in chicken embryos (chicken embryos; two higher doses 7.0 and 14.0 μM) | more material remaining compared to non-fluorinated partner ([1]; vs 4′, human liver microsomes) | more stability in the absolute sense ([1]; vs non-fluorinated 4′, human liver microsomes) [%] | stability in human liver microsomes (in words) ([1]; with and without NADPH)
1 | CC1(C)[C@@H]2CC[C@@]1(C)[C@@H](N1C(=O)c3c(F)c(F)c(F)c(F)c3C1=O)C2 [Compound 14, 4,5,6,7-Tetrafluoro-2-((1R,2S,4R)-1,7,7-trimethylbicyclo[2.2.1]heptan-2-yl) isoindoline-1,3-dione] | fully mitigates this rise | 0 | 0 | 7 | 0 | 2 | 4 | 0 | 3 | 4 | 3 | 2 | micro-opthalmia of the eye | three deaths | No effects on embryo development | well tolerated | increasing death rate |  |  | 
2 | Nc1ccc(F)c2c1C(=S)N(C1CCC(=S)NC1=O)C2=O (centres unmarked) [Compound 30, 4-amino-7-fluoro-2-(2-oxo-6-thioxopiperidin-3-yl)-3-thioxoisoindolin-1-one] |  |  |  |  |  |  |  |  |  |  |  |  |  |  |  |  |  | roughly 16% | 7 | heightened resistance; also recorded: enhanced metabolic fortitude
